Species on record: Rattus norvegicus
Test: Open TG-GATES - Regimen: Single
Type: toxicity, organism-based, Sprague-Dawley
Design: regimen Single, gender Male, age 6 weeks
Details: in vivo, po, route gavage; for APTT / Bas / Eos / Fbg / Hb / Ht / Lym / MCH / MCHC / MCV / Mono / Neu / PT / Plat / RBC / Ret / WBC: tissue Blood; for KIDNEY_L / KIDNEY_R / KIDNEY_TOTAL: tissue Kidney; for LIVER: tissue Liver; for A/G / ALP / ALT / AST / BUN / CRE / Ca / Cl / DBIL / GLC / IP / K / LDH / Na / PL / RALB / TBIL / TC / TG / TP / gamma-GTP: tissue Plasma
[1] = 300 mg/kg, 3 h, dose level Middle
[2] = 300 mg/kg, 6 h, dose level Middle
[3] = 300 mg/kg, 9 h, dose level Middle
[4] = 300 mg/kg, 24 h, dose level Middle
[5] = 1000 mg/kg, 3 h, dose level High
[6] = 1000 mg/kg, 6 h, dose level High
[7] = 1000 mg/kg, 9 h, dose level High
[8] = 1000 mg/kg, 24 h, dose level High

CCCCNC(=O)NS(=O)(=O)c1ccc(C)cc1 [TOLBUTAMIDE]
TERMINAL_BW [1]: 202.7 g
APTT [1]: 16.1 s
Bas [1]: 0%
Eos [1]: 1%
Fbg [1]: 308.4 mg/dL
Hb [1]: 13.7 g/dL
Ht [1]: 42.4%
Lym [1]: 75.2%
MCH [1]: 20.5 pg
MCHC [1]: 32.3%
MCV [1]: 63.5 fL
Mono [1]: 3%
Neu [1]: 20.4%
PT [1]: 12.9 s
Plat [1]: 121.4 x10_4/uL
RBC [1]: 667.6 x10_4/ul
Ret [1]: 9%
WBC [1]: 75.7 x10_2/uL
KIDNEY_L [1]: 0.9 g
KIDNEY_R [1]: 0.9 g
KIDNEY_TOTAL [1]: 1.8 g
LIVER [1]: 8.8 g
A/G [1]: 0.9
ALP [1]: 1501.4 IU/L
ALT [1]: 42 IU/L
AST [1]: 75 IU/L
BUN [1]: 11.2 mg/dL
CRE [1]: 0.2 mg/dL
Ca [1]: 10.8 mg/dL
Cl [1]: 107 meq/L
DBIL [1]: 0.008 mg/dL
GLC [1]: 148 mg/dL
IP [1]: 8.4 mg/dL
K [1]: 4.1 meq/L
LDH [1]: 59.6 IU/L
Na [1]: 141 meq/L
PL [1]: 135.6 mg/dL
RALB [1]: 2.6 g/dL
TBIL [1]: 0.052 mg/dL
TC [1]: 76.6 mg/dL
TG [1]: 71.8 mg/dL
TP [1]: 5.5 g/dL
gamma-GTP [1]: 1 IU/L
TERMINAL_BW [2]: 203.4 g
APTT [2]: 17.5 s
Bas [2]: 0.2%
Eos [2]: 1%
Fbg [2]: 295 mg/dL
Hb [2]: 13.9 g/dL
Ht [2]: 42.5%
Lym [2]: 75.8%
MCH [2]: 21.4 pg
MCHC [2]: 32.7%
MCV [2]: 65.5 fL
Mono [2]: 2.6%
Neu [2]: 20.4%
PT [2]: 13.1 s
Plat [2]: 119.3 x10_4/uL
RBC [2]: 650 x10_4/ul
Ret [2]: 9%
WBC [2]: 68.2 x10_2/uL
KIDNEY_L [2]: 0.9 g
KIDNEY_R [2]: 0.9 g
KIDNEY_TOTAL [2]: 1.8 g
LIVER [2]: 8.5 g
A/G [2]: 0.9
ALP [2]: 1415.4 IU/L
ALT [2]: 47.2 IU/L
AST [2]: 81.8 IU/L
BUN [2]: 11.6 mg/dL
CRE [2]: 0.2 mg/dL
Ca [2]: 11 mg/dL
Cl [2]: 106.6 meq/L
DBIL [2]: 0.006 mg/dL
GLC [2]: 134.8 mg/dL
IP [2]: 9.5 mg/dL
K [2]: 3.8 meq/L
LDH [2]: 54 IU/L
Na [2]: 141.4 meq/L
PL [2]: 126.6 mg/dL
RALB [2]: 2.6 g/dL
TBIL [2]: 0.058 mg/dL
TC [2]: 66.6 mg/dL
TG [2]: 59.2 mg/dL
TP [2]: 5.4 g/dL
gamma-GTP [2]: 1.2 IU/L
TERMINAL_BW [3]: 200 g
APTT [3]: 17.4 s
Bas [3]: 0%
Eos [3]: 1.2%
Fbg [3]: 324 mg/dL
Hb [3]: 13.7 g/dL
Ht [3]: 41.4%
Lym [3]: 69%
MCH [3]: 20.7 pg
MCHC [3]: 32.9%
MCV [3]: 62.9 fL
Mono [3]: 2.4%
Neu [3]: 27%
PT [3]: 13.4 s
Plat [3]: 129.6 x10_4/uL
RBC [3]: 659 x10_4/ul
Ret [3]: 8.8%
WBC [3]: 81.6 x10_2/uL
KIDNEY_L [3]: 0.9 g
KIDNEY_R [3]: 0.9 g
KIDNEY_TOTAL [3]: 1.8 g
LIVER [3]: 7.9 g
A/G [3]: 0.9
ALP [3]: 1449.6 IU/L
ALT [3]: 40.4 IU/L
AST [3]: 71.8 IU/L
BUN [3]: 9.6 mg/dL
CRE [3]: 0.2 mg/dL
Ca [3]: 10.8 mg/dL
Cl [3]: 106.4 meq/L
DBIL [3]: 0.004 mg/dL
GLC [3]: 136.6 mg/dL
IP [3]: 9.9 mg/dL
K [3]: 4 meq/L
LDH [3]: 62 IU/L
Na [3]: 142 meq/L
PL [3]: 127.2 mg/dL
RALB [3]: 2.6 g/dL
TBIL [3]: 0.064 mg/dL
TC [3]: 69.4 mg/dL
TG [3]: 41.6 mg/dL
TP [3]: 5.4 g/dL
gamma-GTP [3]: 1 IU/L
TERMINAL_BW [4]: 218.5 g
APTT [4]: 16.4 s
Bas [4]: 0.2%
Eos [4]: 1%
Fbg [4]: 314.2 mg/dL
Hb [4]: 13.3 g/dL
Ht [4]: 40.4%
Lym [4]: 76.6%
MCH [4]: 20.9 pg
MCHC [4]: 33%
MCV [4]: 63.5 fL
Mono [4]: 3.6%
Neu [4]: 18%
PT [4]: 12.9 s
Plat [4]: 125 x10_4/uL
RBC [4]: 636.8 x10_4/ul
Ret [4]: 8%
WBC [4]: 102.5 x10_2/uL
KIDNEY_L [4]: 0.9 g
KIDNEY_R [4]: 0.9 g
KIDNEY_TOTAL [4]: 1.9 g
LIVER [4]: 10.3 g
A/G [4]: 0.9
ALP [4]: 1549.2 IU/L
ALT [4]: 45 IU/L
AST [4]: 72.2 IU/L
BUN [4]: 14.2 mg/dL
CRE [4]: 0.2 mg/dL
Ca [4]: 11.1 mg/dL
Cl [4]: 105 meq/L
DBIL [4]: 0.008 mg/dL
GLC [4]: 180.2 mg/dL
IP [4]: 8.5 mg/dL
K [4]: 4 meq/L
LDH [4]: 83 IU/L
Na [4]: 141.2 meq/L
PL [4]: 150.2 mg/dL
RALB [4]: 2.5 g/dL
TBIL [4]: 0.062 mg/dL
TC [4]: 81.8 mg/dL
TG [4]: 85 mg/dL
TP [4]: 5.4 g/dL
gamma-GTP [4]: 1 IU/L
TERMINAL_BW [5]: 206.8 g
APTT [5]: 17 s
Bas [5]: 0%
Eos [5]: 0.8%
Fbg [5]: 292.2 mg/dL
Hb [5]: 14.1 g/dL
Ht [5]: 43.1%
Lym [5]: 76.8%
MCH [5]: 21 pg
MCHC [5]: 32.6%
MCV [5]: 64.4 fL
Mono [5]: 3%
Neu [5]: 18.6%
PT [5]: 12.9 s
Plat [5]: 111.8 x10_4/uL
RBC [5]: 669.4 x10_4/ul
Ret [5]: 9%
WBC [5]: 54.6 x10_2/uL
KIDNEY_L [5]: 0.9 g
KIDNEY_R [5]: 0.9 g
KIDNEY_TOTAL [5]: 1.8 g
LIVER [5]: 9.4 g
A/G [5]: 0.9
ALP [5]: 1359.4 IU/L
ALT [5]: 46.8 IU/L
AST [5]: 77.6 IU/L
BUN [5]: 12.4 mg/dL
CRE [5]: 0.2 mg/dL
Ca [5]: 10.9 mg/dL
Cl [5]: 105.8 meq/L
DBIL [5]: 0.004 mg/dL
GLC [5]: 152 mg/dL
IP [5]: 9.3 mg/dL
K [5]: 4 meq/L
LDH [5]: 56.4 IU/L
Na [5]: 140.6 meq/L
PL [5]: 138.2 mg/dL
RALB [5]: 2.7 g/dL
TBIL [5]: 0.05 mg/dL
TC [5]: 73.6 mg/dL
TG [5]: 75 mg/dL
TP [5]: 5.6 g/dL
gamma-GTP [5]: 1 IU/L
TERMINAL_BW [6]: 203.1 g
APTT [6]: 16.9 s
Bas [6]: 0%
Eos [6]: 1%
Fbg [6]: 321.6 mg/dL
Hb [6]: 14.1 g/dL
Ht [6]: 43%
Lym [6]: 72%
MCH [6]: 21.4 pg
MCHC [6]: 32.7%
MCV [6]: 65.3 fL
Mono [6]: 3.4%
Neu [6]: 23.6%
PT [6]: 12.8 s
Plat [6]: 120.2 x10_4/uL
RBC [6]: 659.8 x10_4/ul
Ret [6]: 8.9%
WBC [6]: 69.4 x10_2/uL
KIDNEY_L [6]: 0.9 g
KIDNEY_R [6]: 0.9 g
KIDNEY_TOTAL [6]: 1.8 g
LIVER [6]: 8.5 g
A/G [6]: 0.9
ALP [6]: 1301 IU/L
ALT [6]: 39 IU/L
AST [6]: 70.6 IU/L
BUN [6]: 12.6 mg/dL
CRE [6]: 0.2 mg/dL
Ca [6]: 11 mg/dL
Cl [6]: 105.2 meq/L
DBIL [6]: 0.008 mg/dL
GLC [6]: 140 mg/dL
IP [6]: 9.8 mg/dL
K [6]: 3.9 meq/L
LDH [6]: 56 IU/L
Na [6]: 140.6 meq/L
PL [6]: 144.4 mg/dL
RALB [6]: 2.7 g/dL
TBIL [6]: 0.054 mg/dL
TC [6]: 79.6 mg/dL
TG [6]: 64.2 mg/dL
TP [6]: 5.7 g/dL
gamma-GTP [6]: 1.2 IU/L
TERMINAL_BW [7]: 197.9 g
APTT [7]: 17.7 s
Bas [7]: 0.2%
Eos [7]: 1%
Fbg [7]: 332.8 mg/dL
Hb [7]: 14.4 g/dL
Ht [7]: 43.7%
Lym [7]: 75%
MCH [7]: 21 pg
MCHC [7]: 33.1%
MCV [7]: 63.4 fL
Mono [7]: 1.8%
Neu [7]: 22%
PT [7]: 13.1 s
Plat [7]: 127.4 x10_4/uL
RBC [7]: 689.4 x10_4/ul
Ret [7]: 8.2%
WBC [7]: 56.7 x10_2/uL
KIDNEY_L [7]: 0.9 g
KIDNEY_R [7]: 0.9 g
KIDNEY_TOTAL [7]: 1.9 g
LIVER [7]: 7.8 g
A/G [7]: 0.9
ALP [7]: 1554.6 IU/L
ALT [7]: 38.8 IU/L
AST [7]: 69.8 IU/L
BUN [7]: 11.2 mg/dL
CRE [7]: 0.2 mg/dL
Ca [7]: 10.7 mg/dL
Cl [7]: 106 meq/L
DBIL [7]: 0.006 mg/dL
GLC [7]: 125.2 mg/dL
IP [7]: 10.4 mg/dL
K [7]: 3.9 meq/L
LDH [7]: 53.6 IU/L
Na [7]: 141.4 meq/L
PL [7]: 127 mg/dL
RALB [7]: 2.7 g/dL
TBIL [7]: 0.056 mg/dL
TC [7]: 66.2 mg/dL
TG [7]: 44.2 mg/dL
TP [7]: 5.8 g/dL
gamma-GTP [7]: 1 IU/L
TERMINAL_BW [8]: 213.9 g
APTT [8]: 16.6 s
Bas [8]: 0%
Eos [8]: 1%
Fbg [8]: 274 mg/dL
Hb [8]: 13.3 g/dL
Ht [8]: 41.1%
Lym [8]: 80%
MCH [8]: 21 pg
MCHC [8]: 32.5%
MCV [8]: 64.4 fL
Mono [8]: 3%
Neu [8]: 15.6%
PT [8]: 13.4 s
Plat [8]: 117.8 x10_4/uL
RBC [8]: 637.8 x10_4/ul
Ret [8]: 7.3%
WBC [8]: 83.8 x10_2/uL
KIDNEY_L [8]: 0.9 g
KIDNEY_R [8]: 0.9 g
KIDNEY_TOTAL [8]: 1.8 g
LIVER [8]: 9.4 g
A/G [8]: 0.9
ALP [8]: 1517.2 IU/L
ALT [8]: 44.2 IU/L
AST [8]: 75.4 IU/L
BUN [8]: 15.4 mg/dL
CRE [8]: 0.2 mg/dL
Ca [8]: 10.9 mg/dL
Cl [8]: 106.6 meq/L
DBIL [8]: 0.006 mg/dL
GLC [8]: 201.4 mg/dL
IP [8]: 8.4 mg/dL
K [8]: 3.9 meq/L
LDH [8]: 73.4 IU/L
Na [8]: 141.6 meq/L
PL [8]: 136.6 mg/dL
RALB [8]: 2.5 g/dL
TBIL [8]: 0.058 mg/dL
TC [8]: 77.2 mg/dL
TG [8]: 72.2 mg/dL
TP [8]: 5.4 g/dL
gamma-GTP [8]: 1 IU/L

From ChEMBL document CHEMBL3885861, “Open TG-GATES”
